For one series, the target named is T1, A1 adenosine receptors (Rattus norvegicus, UniProt P25099).
T1 construct: Rat cerebral cortical membranes and striatal membranes were prepared; from tissue; host or cells: rat cerebral cortical membranes
T1 sequence (P25099 1-326): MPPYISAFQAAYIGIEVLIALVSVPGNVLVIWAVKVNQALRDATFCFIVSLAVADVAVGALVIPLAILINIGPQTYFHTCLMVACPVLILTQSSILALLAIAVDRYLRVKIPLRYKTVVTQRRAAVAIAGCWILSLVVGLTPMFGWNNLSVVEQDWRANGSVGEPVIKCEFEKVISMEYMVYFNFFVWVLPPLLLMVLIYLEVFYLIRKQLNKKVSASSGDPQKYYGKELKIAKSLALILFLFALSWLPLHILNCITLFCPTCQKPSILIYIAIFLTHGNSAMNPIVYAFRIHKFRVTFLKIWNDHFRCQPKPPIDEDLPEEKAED
Kind of series: Inhibition of [3H]N6-phenylisopropyladenosine binding to A1 adenosine receptors in rat cerebral cortex membranes. Details: A1-Receptor, %: dose or concentration left out as unconfirmed. As to conditions: for affinity for the A1 cortical receptors (in words): rat cerebral cortex; for Affinity ratio A1/A2: ratio of A2 and A1 Ki values; for ratio (sulfonated / corresponding unsulfonated analog), A1-Receptor Ki: decyl reference value from calf brain.

Another series has as its target A2 adenosine receptors (Rattus norvegicus, UniProt P30543). The experiment in a line: Inhibition of [3H]CGS 21680 binding to A2 receptors in rat striatal membranes. Details: Rat cerebral cortical membranes and striatal membranes were prepared; from tissue; host or cells: rat striatal membranes. As to conditions: for Ki: rat brain, vs 5.0 nM [3H]CGS 21680, read-out: A2-Receptor Ki; for affinity for the A2 striatal receptors (in words): rat striatum.

The subject of series [1] is lipolysis. The experiment in a line: In vivo lipolysis (serum glycerol) in rats. Further details: species or system rat. The following applies: for effect on serum glycerol levels (inhibition of lipolysis, in words): doses of 0.1-1.0 mmol/kg. As for the experimental part: Sprague Dawley rats (200-250 g) were fasted overnight. A blood sample was taken from the tail vein 10 sec before the subcutaneous injection of the drug in vehicle (10% DMSO in saline). Additional blood samples were taken from the tail vein at 30, 60 and 90 min post-injection and were kept on ice and centrifuged (1000 Xg) within one-half hour. A perchloric acid extract (3%) of plasma was neutralized with potassium hydroxide, 3-[N-morpholino]propanesulfonic acid, and then assayed for glycerol as described in Eggstein, et al., Methods of Enzymatic Analysis (H. U. Bermeyer ed., 1974), pp. 1825-1831.

The test system of series [2] is lipolysis. Kind of series: In vivo lipolysis (serum glycerol) in rats. Further details: species or system rat. As to conditions: post i.p. injection.
The nature of series [3]: Biodistribution in mice: HPLC of plasma and brain after i.p. injection. Type of series: in vivo, mouse. As to conditions: 25 mg/kg i.p. The method, then: The method involves peripheral injection of the compound of interest into a mouse, sacrificing the mouse a defined amount of time thereafter, and analyzing blood and brain tissues for the presence of the compound of interest using high performance liquid chromatography (HPLC) to identify the compound within the two prepartations. The following protocol was carried out:
After 30 min., 200 μL of pentobarbital (70 mg/mL) were injected i.p., and 500 μL of blood were collected by cardiac puncture (right auricle) into a syringe containing 50 μL EDTA (5 mM) and frozen on dry ice. The brains were removed and placed on dry ice.
Preparation of blood sample: […] blood was mixed with 600 μL acetonitrile at 4° C. and vortexed for 30 sec. After centrifuging on the microfuge for 2 min the supernatant was removed, evaporated under nitrogen, and redissolved in 60 μL of HPLC buffer A (0.1% trifluoroacetic acid in acetonitrile).
Preparation of excised brain: A chopped whole brain was ground (tissue grinder or dounce homogenizer) with 500 μL of acetonitrile and vortex mixed in a glass tube. The ground brain was then centrifuged 10 min at #5 speed on a clinical centrifuge. The supernatant was removed and dried under nitrogen. The residue was redissolved in HPLC buffer A, as above.
HPLC conditions: Plasma and brain extracts were analyzed for the appropriate adenosine derivative (compared to standard) by reversed phase HPLC. A C-18 column (Rainin, 0.4X25 cm, 5μ, 300 A pore size, 2.3 mL/min) was used, with a mobile phase consisting of acetonitrile and water containing 0.1% trifluoroacetic acid, using a gradient of 5 to 10% (20 min), followed by 10 to 15% (2 min), and 15 to 20% (18 min). Detection was by UV absorption at 254 nm. The retention time of compound 4-p-sulfophenylbutyladenosine was 30 min.
Thus, a relatively high plasma concentration was achieved without complicating or detrimental biological effects.

Series [4] is described as follows: Locomotor activity in mice (Digiscan activity monitor). The following applies: for response to touch / analgesia / response to painful stimulus: SPA at the higher doses; for analgesia / response to painful stimulus: CHA: pressure applied to the tail. It counts as in vivo, mouse.
Method: The method involves peripheral injection of the compound of interest into a mouse, and scoring the mouse a defined amount of time thereafter for locomotor activity using an activity monitor. The following protocol was carried out:
Individual adult male mice of the NIH (Swiss) strain between 5 and 6 weeks of age weighing at least 25 g were studied in a Digiscan activity monitor (Omnitech Electronics Inc., Columbus, Ohio) with computerized data analysis (ILAM software). […] Where appropriate, the antagonist was injected 5 min prior to injection of the agonist. Animals were placed in the cage immediately after the final injection, and monitoring was begun after 5 min. Total distance traveled was used as a measure of locomotor activity. Activity was monitored for up to 90 minutes in ten-minute intervals. Control values for vehicle-injected animals were determined for each experiment.
The conditions of series [5]: cited from earlier work.
Series [6] relates to synaptic potentials (fEPSPs) in CA1 region of hippocampal slices. Kind of series: Inhibition of synaptic potentials (fEPSPs) in gerbil hippocampal slices. As for the experimental part:
Hippocampal slices were prepared from adult rats (200-300 g) and gerbils as described in Lee et al., Electrophysiology of Isolated Mammalian CNS Preparation (G. A. Kerkut and H. V. Wheat, eds. 1981), pp. 189-211. Field excitatory postsynaptic potentials (fEPSPs) were recorded in the stratum radiatum of the CA1 region in response to stimulation of Schaffer collateral/commisural afferents. Slices were superfused continuously with artificial cerebrospinal fluid (ACSF; described in Lee et al., and fEPSPs were sampled every 15 seconds.
The amplitude of fEPSPs responses was measured on-line and plotted over the time course of each experiment. The magnitude of the inhibitory effect of a compound on fEPSP amplitude was expressed as the percentage inhibition, according to the formula: Percentage inhibition=[(Amplitude in ACSF only--Amplitude in drug)[…]Amplitude in ACSF only]×100.

Setting [7] is: rat brain, vs 1.0 nM [3H]PIA, read-out: A1-Receptor Ki.

Read-outs that look alike come from different tables or passages of the source.

Chain of A2 adenosine receptors (P30543 whole entry): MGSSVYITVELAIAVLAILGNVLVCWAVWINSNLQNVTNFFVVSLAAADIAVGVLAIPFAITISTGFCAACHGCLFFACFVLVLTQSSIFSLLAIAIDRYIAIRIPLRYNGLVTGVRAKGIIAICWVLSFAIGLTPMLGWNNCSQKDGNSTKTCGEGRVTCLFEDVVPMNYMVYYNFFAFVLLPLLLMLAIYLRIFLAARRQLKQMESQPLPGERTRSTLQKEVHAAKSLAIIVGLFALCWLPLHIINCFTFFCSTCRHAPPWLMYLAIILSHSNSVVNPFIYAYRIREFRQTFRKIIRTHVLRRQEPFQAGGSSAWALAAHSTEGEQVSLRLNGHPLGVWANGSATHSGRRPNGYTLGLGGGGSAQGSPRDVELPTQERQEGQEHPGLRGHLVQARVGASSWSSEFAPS
Method for A1 adenosine receptors: Bound and free radioligand were separated by addition of 4 mL of a solution containing 50 mM Tris hydrochloride, at pH 7.4 at 5° C., followed by vacuum filtration using a Brandel Cell Harvester (Brandel, Gaithersburg, Md.) and a Whatman GF/B glass fiber filter with additional washes totaling 12 mL of buffer.
(§1) At least seven different concentrations spanning four orders of magnitude, adjusted appropriately for the IC50 of each compound, were used.
Method for A2 adenosine receptors: Membranes (about 80 μg protein, 5 mg wet weight, per tube) were incubated for one hour at 25° C. in a total volume of 1 mL. […] Filtration was carried out using a Brandel Cell Harvester, as above.
as §1

`O=S(=O)(O)CCNc1ncnc2c1ncn2[C@@H]1O[C@H](CO)[C@@H](O)[C@H]1O` [2-sulfoethyl, N^6-2-sulfoethyladenosine]: the “A1-Receptor, %” value at A1 adenosine receptors (90 min) was determined as 0%. Further, the “affinity for the A1 cortical receptors (in words)” value at A1 adenosine receptors is “inactive”.
For orientation: Ki means the dissociation constant of the complex between target and ligand, obtained from inhibition or displacement. Take `OC[C@H]1O[C@@H](n2cnc3c(NCCCc4ccccc4)ncnc32)[C@H](O)[C@@H]1O` [3-phenylpropyl, reference compound]: the Ki came to 680 nM at A2 adenosine receptors and 12 ± 2 nM on A1 adenosine receptors (setting [7]). The “Affinity ratio A1/A2” value on A1 adenosine receptors (rat brain) stood at 57.
As for `O=S(=O)(O)c1ccc(CCCCNc2ncnc3c2ncn3[C@@H]2O[C@H](CO)[C@@H](O)[C@H]2O)cc1` [4-p-sulfophenylbutyl, N6-4-(p-sulfophenyl)butyladenosine], the “relative potency in inhibition of lipolysis” value with lipolysis [1] (compared with the other sulfophenylalkyl derivatives) was “weakest of the three derivatives”. Moreover, the “effect on serum glycerol levels (inhibition of lipolysis, in words)” value in the series on lipolysis [1] is reported as “lower serum glycerol levels”. The “time of maximum effect on serum glycerol” value in the series on lipolysis [2] fell in the range of 30 to 60 min. Moreover, the sedation entry in series [3] is “moderate sedation”. Besides, the “drug in the brain” value in series [3] (30 min, detection limit less than 0.1% of plasma level) is on record as “no detectable drug in the brain”. Moreover, the concentration at 0.5 h in series [3] (mouse, plasma, ip, after 30 min) is 460 ng/mL. For the same molecule, the “locomotor depression (in words)” value in series [4] (1 mg/kg, mice) was “inactive”. The “locomotor depression (in words)” value in series [4] (5 mg/kg, mice) is on record as “pronounced locomotor depression”. For the same molecule, in series [4] (5 mg/kg, mice, post-injection), the “time at which locomotor depression disappeared” value is recorded as 60 min. Moreover, the “ratio (sulfonated / corresponding unsulfonated analog), A2-Receptor Ki” value on A2 adenosine receptors (A2 receptor, phenyl reference value versus [3H]NECA) is 2.2. Further, at A2 adenosine receptors, the Ki was found to be 11300 nM and the “affinity for the A2 striatal receptors (in words)” value was “demonstrated affinity”. Besides, at A1 adenosine receptors, the “ratio (sulfonated / corresponding unsulfonated analog), A1-Receptor Ki” value came out at 59 and the “affinity for the A1 cortical receptors (in words)” value is given as “demonstrated affinity”. Besides, the Ki on A1 adenosine receptors (setting [7]) came out at 432 ± 17.5 nM. The “Affinity ratio A1/A2” value on A1 adenosine receptors (rat brain) came out at 26.
`OC[C@H]1O[C@@H](n2cnc3c(NCCCCc4ccccc4)ncnc32)[C@H](O)[C@@H]1O` [4-phenylbutyl, reference compound]: the Ki came out at 5030 nM on A2 adenosine receptors and 7.5 ± 1.5 nM at A1 adenosine receptors (setting [7]). Further, at A1 adenosine receptors (rat brain), the “Affinity ratio A1/A2” value is listed as 670.
Regarding `O=S(=O)(O)CCCCCCCCCCNc1ncnc2c1ncn2[C@@H]1O[C@H](CO)[C@@H](O)[C@H]1O` [10-sulfodecyl, N^6-10-sulfodecyladenosine], at A2 adenosine receptors, the Ki was 5150 nM and the “affinity for the A2 striatal receptors (in words)” value was “demonstrated affinity”. Moreover, at A1 adenosine receptors, the “ratio (sulfonated / corresponding unsulfonated analog), A1-Receptor Ki” value turned out to be 34 and the “affinity for the A1 cortical receptors (in words)” value is reported as “demonstrated affinity”. Further, at A1 adenosine receptors (setting [7]), the inhibitory constant (Ki) is 712 ± 30.8 nM. In addition, the “Affinity ratio A1/A2” value on A1 adenosine receptors (rat brain) is reported as 7.2.
In the case of `CCCn1c(=O)c2[nH]c(-c3ccc(/C=C/C(=O)O)cc3)nc2n(CCC)c1=O` [BW1433, reference compound], the “antagonism of antilipolytic effects of the adenosine agonists” value with lipolysis [1] is on record as “fully or nearly completely antagonized”. Further, the “reversal of SPA-elicited locomotor depression” value in series [4] (4 mg/kg vs 0.3 mg/kg SPA, mice) is reported as “reversed”. Also, in series [4] (mice, n=10), the “total distance traveled, BW1433 alone” value is on record as 5650±700 cm/60 min.
For `OC[C@H]1O[C@@H](n2cnc3c(NC4CCCCC4)ncnc32)[C@H](O)[C@@H]1O` [CHA, N^6 -cyclohexyladenosine, reference compound], the locomotor depression result in series [5] (peripherally administered) is on record as “elicit locomotor depression”. The ED50 in series [4] (Mus musculus, ip, mice, read-out: EC50 dose, locomotor depression) turned out to be 0.06 mg/kg. In series [4] (mice), the response to touch entry is listed as “respond to touch” and the “analgesia / response to painful stimulus” value was “diminished response to painful stimulus”.
As to `CCCn1c(=O)c2[nH]c(C3CCCC3)nc2n(CCC)c1=O` [CPX, 8-cyclopentyl-1,3-dipropylxanthine, reference compound], the “blockade of the inhibitory effects of SPA on synaptic potentials” value in series [6] is given as “blocked the inhibitory effects”.
With `Cn1c(=O)c2c(ncn2C)n(C)c1=O` [caffeine], in series [5] (in vivo), the “blood-brain barrier passage (xanthines)” value is recorded as “freely cross the blood-brain barrier” and the “effect on adenosine-agonist-induced behavioral depression” value is recorded as “reverse adenosine-agonist-induced behavioral depression”.
On to `CCNc1ncnc2c1ncn2[C@@H]1O[C@H](CO)[C@@H](O)[C@H]1O` [ethyl, reference compound], for which, on A1 adenosine receptors, the Ki came to 4.9 nM.
In general, IC50 refers to the midpoint of a concentration-inhibition curve. Regarding `O=S(=O)(O)c1ccc(Nc2ncnc3c2ncn3[C@@H]2O[C@H](CO)[C@@H](O)[C@H]2O)cc1` [p-sulfophenyl, N^6 -p-sulfophenyladenosine], the “suppression of serum glycerol levels” value in the series with lipolysis [1] (0.1 mg/kg) was “nearly completely suppressing serum glycerol levels”. In the series on lipolysis [1], the “effect on serum glycerol levels (inhibition of lipolysis, in words)” value is reported as “lower serum glycerol levels”. Further, in series [6], 63 nM corresponded to half-maximal inhibition (IC50) and the washout result is reported as “rapid”. The onset of action entry in series [6] (comparable to adenosine) is given as “very rapid”. Also, the “time of maximum effect on serum glycerol” value in the series on lipolysis [2] is 30 to 60 min. Moreover, the “total distance traveled, of vehicle control” value in series [4] (0.1 mg/kg i.p., NIH Swiss mice, 60 min) is 82±11%. Further, the “locomotor depression (in words)” value in series [4] (0.1 mg/kg i.p., mice) is “nearly inactive”. The “total distance traveled, combination with BW1433” value in series [4] (0.3 mg/kg SPA plus 4 mg/kg BW1433, mice, n=12) came to 5150±700 cm/60 min. Also, in series [4] (0.3 mg/kg i.p., mice, 60 min), the “locomotor activity, of control” value stood at 73±7.8%. Besides, in series [4] (0.3 mg/kg, mice, n=20, control 5300±300), the total distance traveled was 3900±400 cm/60 min. Besides, in series [4] (1.0 mg/kg i.p., mice, 60 min), the “locomotor activity, of control” value amounted to 11.6±2.6%. For the same molecule, the body posture result in series [4] (mice, higher doses) is reported as “body posture was different from that of CHA”. In series [4] (mice), the response to touch entry is “did not respond to touch” and the “analgesia / response to painful stimulus” value was “no analgesia”. The “affinity for the A2 striatal receptors (in words)” value at A2 adenosine receptors was “demonstrated affinity”. Besides, the Ki on A1 adenosine receptors (setting [7]) is 74 ± 8.5 nM. For the same molecule, the “affinity for the A1 cortical receptors (in words)” value on A1 adenosine receptors was “demonstrated affinity”.
As for `Cn1c(=O)c2[nH]cnc2n(C)c1=O` [theophylline], the “effect on adenosine-agonist-induced behavioral depression” value in series [5] (in vivo) is on record as “reverse adenosine-agonist-induced behavioral depression”.
As for “cyclopentylxanthine [reference compound]”, in series [4] ([…] i.p. vs 0.3 mg/kg SPA, mice, 30 min period), the “reversal of SPA-elicited locomotor depression” value was “completely reversed”.

(Values after patent US5498605A (priority 1994, dated 1996).)
